Several values for one entry are separate records, joined by “and”; a condition that tells them apart may be missing. Equal entries are not always repeated. Where two headings read alike, the source gives them in different places.
How the values were obtained:
[1] = system: bladder capacity; experiment: Dilute acetic acid irritative model, bladder capacity by cystometry in urethane-anesthetized rats; format: in vivo, rat; conditions: for effectiveness of drug alone on bladder capacity: i.v.; for effective dose range of the drug in the isobologram combinations compared with the drug alone: individual animals, return to 31% of saline control
Protocol: Subsequently, three series at markedly lower doses and at different dose ratios were performed for the purposes of isobologram construction (n=4/group).
Subsequent studies aimed at isobologram construction combined the drugs in dose combinations as shown in the table below (low, middle and high doses for each drug paired).
The abdominal cavity was moistened with saline and closed by covering with a thin plastic sheet in order to maintain access to the bladder for emptying purposes.
Bladder capacity data for each animal were normalized to “% Recovery from Irritation,” and this index was used as the measure of efficacy. Data from experiments in which each of the drugs were administered alone were utilized to create theoretical populations of additive effects for each dose (low, mid and high), and these were compared by one-tailed t-test (individual dose comparisons) and by 2-Way ANOVA (across doses) to the actual combination drug data. The means and standard deviations of each individual treatment's “dose-matched” (low, middle, and high) responses were added together to estimate the mean and standard deviation of the theoretical additive populations for which to compare to the actual data obtained from the combination experiments. The theoretical additive effect population N=(Nantimuscarinic+Nα28 subunit modulator)−1. P<0.050 was considered significant.
Isobologram construction consisted of two methods, both utilizing the same data, but plotting the results either as group means or by individual responses. […] When utilizing individual responses for both drugs alone and the combinations listed in the above table, the target value was 31% of saline control. […] For statistical purposes, the data were analyzed making comparisons for each drug, regardless of whether alone or in combination.

[2] = for pharmacokinetic drug-drug interaction between oxybutynin and gabapentin: rat, i.v. 3 mg/kg oxybutynin and 100 mg/kg gabapentin
[3] = preclinical and clinical studies, cited from earlier work
[4] = system: nociception induced by formalin and carrageenan; mechanical hyperalgesia and mechanical/thermal allodynia; conditions: Rose et al. (2002); cited from earlier work
[5] = system: painful symptoms associated with diabetic peripheral neuropathy, post-herpetic neuralgia, and neuropathic pain; conditions: double-blind, placebo-controlled trials; cited from earlier work
[6] = system: beta-adrenergic blocking; conditions: cited from earlier work
[7] = analyte gabapentin in rat plasma, i.v. 100 mg/kg gabapentin alone (Gab) or with 3 mg/kg oxybutynin (Com), group Mean
[8] = analyte gabapentin in rat plasma, i.v. 100 mg/kg gabapentin alone (Gab) or with 3 mg/kg oxybutynin (Com), group Mean, outliers excluded
[9] = analyte gabapentin in rat plasma, i.v. 100 mg/kg gabapentin alone (Gab) or with 3 mg/kg oxybutynin (Com), individual animals

CCN(CC)CC#CCOC(=O)C(O)(c1ccccc1)C1CCCCC1 (stereo not drawn) [Oxy, 4-diethylaminio-2-butynyl phenylcyclohexyglycolate]
effectiveness of drug alone on bladder capacity [1]: modest effectiveness | effective dose range of the drug in the isobologram combinations compared with the drug alone [1]: significantly lower | pharmacokinetic drug-drug interaction between oxybutynin and gabapentin [2]: No evidence of drug-drug interaction

CC(OC(=O)NCC1(CC(=O)O)CCCCC1)OC(=O)C(C)C (stereo not drawn) [XP13512]
blood levels of gabapentin across a broad range of oral doses ([3]; oral): dose proportional | absorption from the large intestine [3]: absorbed efficiently

NCC1(CC(=O)O)CCCCC1 [Gab, 1-(aminomethyl) cyclohexaneacetic acid]
effect in neuropathic pain models of mechanical hyperalgesia and mechanical/thermal allodynia [4]: inhibitory effect | effect on nociception induced by formalin and carrageenan [4]: block the tonic phase of nociception | effectiveness of drug alone on bladder capacity [1]: modest effectiveness | effective dose range of the drug in the isobologram combinations compared with the drug alone [1]: significantly lower | efficacy for painful symptoms associated with diabetic peripheral neuropathy, post-herpetic neuralgia, and neuropathic pain [5]: effective treatment | AUC0-∞ [2, 7]: 1.62e+07 ng·min/mL | CL [2, 7]: 6.52 mL/min/kg | Vz [2, 7]: 1.242 L/kg | t1/2 [2, 7]: 128 min | AUC0-t [2, 8]: 9.45e+06 ng·min/mL | Cmax [2, 8]: 98.6 µg/mL | AUC0-∞ [2, 9]: 1.95e+07 ng·min/mL | CL [2, 9]: 5.12 mL/min/kg | Tmax [2, 9]: 15 min and 30 min | Vz [2, 9]: 0.91 L/kg and 0.89 L/kg | comparison of Cmax and AUC0-T data for gabapentin between single-drug group and combination (Com) group ([2]; rat plasma, i.v., Table 2): no appreciable difference | pharmacokinetic drug-drug interaction between oxybutynin and gabapentin [2]: No evidence of drug-drug interaction

CC(C)NCC(O)COc1cccc2ccccc12 (stereo not drawn) [propranolol]
potency of L-enantiomer relative to D-enantiomer [6]: 100 times

CCNCC#CCOC(=O)C(O)(c1ccccc1)C1CCCCC1 (stereo not drawn) [desethyl oxybutynin, N-desethyl-oxybutynin]
comparison of Cmax and AUC0-t data for desethyl oxybutynin between oxybutynin (Oxy) group and combination (Com) group ([2]; rat plasma, i.v., Table 4): no appreciable difference
